# Data reported in patent US4520022A, “Substituted vinyl cephalosporins” (priority 1983, dated 1985).
# Read-outs that look alike come from different tables or passages of the source.
# Key:
# N. meningitidis = assay: In vitro activity against Neisseria (MIC), N. meningitidis; assay type: cell-based
# E. coli Juhl = assay: Protective dose, mice infected with lethal inoculum, oral treatment, E. coli Juhl; assay type: in vivo
# [1] = system: Gp Ib: S. aureus 193, BX-1633-2 A9606, A15092, Russell, A9602; settings: Staphylococcus aureus
# [2] = system: Gp Ia: S. aureus Smith A9537, A9497, Terajima, A9534, A9601; settings: Staphylococcus aureus
# Gp, rods; Gp, cocci = assay: microbe, parasite or virus in culture; assay type: cell-based, C. difficile; C. perfringens; P. acnes; P. anaerobius; settings: read-out: MIC, Geometric Mean
# C. perfringens A9645 = assay: microbe, parasite or virus in culture; assay type: cell-based; settings: Clostridium perfringens
# P. anaerobius A21905 = assay: In vitro activity against anaerobes (MIC), P. anaerobius; assay type: cell-based; settings: Peptostreptococcus anaerobius; Gp cocci; P. anaerobius A21905; read-out: MIC
# S. pneumoniae = assay: In vitro activity against Streptococci (MIC), S. pneumoniae; assay type: cell-based; settings: Streptococcus pneumoniae, Compound 9 lot 2
# in vivo = settings: mouse; for half-life: T1/2
# N. gonorrheae = assay: In vitro activity against Neisseria (MIC), N. gonorrheae; assay type: cell-based
# H. influenzae = assay: In vitro activity against Haemophilis (MIC), H. influenzae; assay type: cell-based; settings: Haemophilus influenzae, Compound 9 lot 2
# P. mirabilis A9554 = assay: Protective dose PD50, mice infected with lethal inoculum, oral treatment, P. mirabilis A9554; assay type: in vivo
# S. aureus BX-1633 = assay: Protective dose PD50, mice infected with lethal inoculum, oral treatment, S. aureus BX-1633; assay type: in vivo; settings: Staphylococcus aureus, BX1633, 120 h
# H. influenza A9729 = assay: Protective dose PD50, mice infected with lethal inoculum, oral treatment, H. influenza A9729; assay type: in vivo; settings: Mus musculus, 120 h
# Method in brief: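 Mice received a lethal bacterial inoculum, which normally kills untreated animals within three days. PD50 is the dose that gives 50% survival of a treated infected group after five days.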
# P. acnes A21933 = assay: In vitro activity against anaerobes (MIC), P. acnes; assay type: cell-based; settings: Cutibacterium acnes; Gp cocci; P. acnes A21933; read-out: MIC
# S. pyogenes = assay: In vitro activity against Streptococci (MIC), S. pyogenes; assay type: cell-based; settings: Streptococcus pyogenes, Compound 9 lot 2
# S. aureus Smith = assay: Protective dose, mice infected with lethal inoculum, oral treatment, S. aureus Smith; assay type: in vivo; settings: Staphylococcus aureus, po, 120 h, oral, read-out: Protective dose (PD50), S. aureus Smith
# B. fragilis = assay: In vitro activity against anaerobes (MIC), B. fragilis; assay type: cell-based; settings: Bacteroides fragilis
# S. pyogenes A20201 = assay: Protective dose PD50, mice infected with lethal inoculum, oral treatment, S. pyogenes A20201; assay type: in vivo; settings: Streptococcus pyogenes, 120 h
# [3] = mouse, in vivo
# [4] = system: Gp Ia, Gp Ib, Gn Ia organisms of Table 2; assay: Test medium comparison, agar dilution MIC, Mueller-Hinton agar versus nutrient agar
compound,measurement,setting,value
"C/C=C\C1=C(C(=O)O)N2C(=O)[C@@H](NC(=O)[C@H](N)c3ccc(O)cc3)[C@H]2SC1 [Compound 9, 7β-[D-2-amino-(p-hydroxyphenyl)acetamido]-3-[(Z)-1-propen-1-yl]-3-cephem-4-carboxylic Acid]",MIC,"N. meningitidis; N. meningitidis A21487, Compound 9 lot 2",0.8 µg/mL
same,MIC,"N. meningitidis; N. meningitidis A21496, Compound 9 lot 2",0.8 µg/mL
same,MIC,"N. meningitidis; N. meningitidis A21497, Compound 9 lot 2",0.8 µg/mL
same,MIC,"N. meningitidis; Neisseria meningitidis, read-out: MIC",0.8 µg/mL
same,MIC,"N. meningitidis; Neisseria meningitidis, read-out: MIC, Geometric Mean",0.8 µg/mL
same,ED50,"E. coli Juhl; Escherichia coli, po, 120 h, oral, 50% survival for 5 days, groups of 5 mice, read-out: Protective dose (PD50), E. coli Juhl",1.2 mg/kg
same,activity against the Gram- infection,E. coli Juhl; in words,more active against the Gram- infection
same,MIC,"[1]; read-out: Minimum Inhibitory Concentration Gp Ib, Mueller-Hinton agar, run 1, average of five organisms",0.92 µg/mL
same,MIC,"[1]; read-out: Minimum Inhibitory Concentration Gp Ib, Mueller-Hinton agar, run 2, average of five organisms",0.8 µg/mL
same,MIC,"[1]; read-out: Minimum inhibitory Concentration Gp Ib, Test Medium Comparison, A: Mueller-Hinton agar, average values",0.92 µg/mL
same,MIC,"[1]; read-out: Minimum inhibitory Concentration Gp Ib, Test Medium Comparison, B: Nutrient agar, average values",0.35 µg/mL
same,MIC,"[2]; read-out: Minimum Inhibitory Concentration Gp Ia, Mueller-Hinton agar, run 1, average of five organisms",0.23 µg/mL
same,MIC,"[2]; read-out: Minimum Inhibitory Concentration Gp Ia, Mueller-Hinton agar, run 2, average of five organisms",0.35 µg/mL
same,MIC,"[2]; read-out: Minimum inhibitory Concentration Gp Ia, Test Medium Comparison, A: Mueller-Hinton agar, average values",0.23 µg/mL
same,MIC,"[2]; read-out: Minimum inhibitory Concentration Gp Ia, Test Medium Comparison, B: Nutrient agar, average values",0.17 µg/mL
same,MIC,"Gp, rods; Gp, cocci",0.95 µg/mL
same,MIC,C. perfringens A9645,0.4 µg/mL
same,MIC,P. anaerobius A21905,0.8 µg/mL
same,MIC,"S. pneumoniae; S. pneumoniae A9585, read-out: MIC",0.2 µg/mL
same,MIC,"S. pneumoniae; S. pneumoniae A15069, read-out: MIC",0.2 µg/mL
same,MIC,"S. pneumoniae; S. pneumoniae A20759, read-out: MIC",0.2 µg/mL
same,MIC,"S. pneumoniae; S. pneumoniae Type I, read-out: MIC",0.2 µg/mL
same,MIC,"S. pneumoniae; S. pneumoniae Type II, I, III, A9585, A15069, read-out: MIC, Geometric Mean",0.2 µg/mL
same,MIC,"S. pneumoniae; S. pneumoniae Type II, read-out: MIC",0.2 µg/mL
same,MIC,"S. pneumoniae; S. pneumoniae Type III, read-out: MIC",0.2 µg/mL
same,Cmax,"in vivo; im, 20 mg/kg",28000 ng/mL
same,half-life,"in vivo; im, 20 mg/kg",0.88 h
same,AUC,"in vivo; po, 20 mg/kg, AUC*",26000 ng·h/mL
same,Cmax,"in vivo; po, 20 mg/kg",15000 ng/mL
same,half-life,"in vivo; po, 20 mg/kg",1.9 h
same,AUC,"in vivo; po, 100 mg/kg, AUC",106000 ng·h/mL
same,Cmax,"in vivo; po, 100 mg/kg",56000 ng/mL
same,half-life,"in vivo; po, 100 mg/kg",1.9 h
same,MIC,"N. gonorrheae; N. gonorrheae A20142, Compound 9 lot 2",0.8 µg/mL
same,MIC,"N. gonorrheae; N. gonorrheae A20143, Compound 9 lot 2",0.8 µg/mL
same,MIC,"N. gonorrheae; N. gonorrheae A20154, Compound 9 lot 2",0.8 µg/mL
same,MIC,"N. gonorrheae; N. gonorrheae A20155, Compound 9 lot 2",0.8 µg/mL
same,MIC,N. gonorrheae; read-out: MIC,0.8 µg/mL
same,MIC,"N. gonorrheae; read-out: MIC, Geometric Mean",0.8 µg/mL
same,MIC,"H. influenzae; H. influenzae A9729, read-out: MIC",0.8 µg/mL
same,MIC,"H. influenzae; H. influenzae A9833, read-out: MIC",0.8 µg/mL
same,MIC,"H. influenzae; H. influenzae A20177, read-out: MIC",0.8 µg/mL
same,MIC,"H. influenzae; H. influenzae A20193, read-out: MIC",0.8 µg/mL
same,MIC,"H. influenzae; H. influenzae A21523, read-out: MIC",0.8 µg/mL
same,MIC,"H. influenzae; H. influenzae A22482, read-out: MIC",0.8 µg/mL
same,MIC,"H. influenzae; H. influenzae A22483, read-out: MIC",0.8 µg/mL
same,MIC,"H. influenzae; H. influenzae, seven strains above, read-out: MIC, Geometric Mean",0.8 µg/mL
same,Protective Dose PD50,P. mirabilis A9554,1.8
same,ED50,S. aureus BX-1633,2.2 mg/kg
same,ED50,H. influenza A9729,1.8 mg/kg
same,MIC,P. acnes A21933,0.4 µg/mL
same,MIC,"S. pyogenes; S. pyogenes A9604, read-out: MIC",0.05 µg/mL
same,MIC,"S. pyogenes; S. pyogenes A15040, read-out: MIC",0.05 µg/mL
same,MIC,"S. pyogenes; S. pyogenes A20065, read-out: MIC",0.05 µg/mL
same,MIC,"S. pyogenes; S. pyogenes A20201, read-out: MIC",0.1 µg/mL
same,MIC,"S. pyogenes; S. pyogenes Dick, read-out: MIC",0.05 µg/mL
same,MIC,"S. pyogenes; S. pyogenes S-23, Dick, A9604, A20065, A15040, read-out: MIC, Geometric Mean",0.05 µg/mL
same,MIC,"S. pyogenes; S. pyogenes S-23, read-out: MIC",0.05 µg/mL
same,ED50,"S. aureus Smith; 50% survival for 5 days, groups of 5 mice",0.14 mg/kg
same,ED50,"S. aureus Smith; separate run of Compound 42 and BMY28100, cephalexin/cefadroxil controls not available",0.16 mg/kg
same,MIC,"B. fragilis; B. fragilis A20928-1, A21900, A20935, β-lactamase (-), read-out: MIC, Geometric Mean",3.2 µg/mL
same,MIC,"B. fragilis; B. fragilis A20928-1, β-lactamase (-), read-out: MIC",0.8 µg/mL
same,MIC,"B. fragilis; B. fragilis A20935, β-lactamase (-), read-out: MIC",0.8 µg/mL
same,MIC,"B. fragilis; B. fragilis A21900, β-lactamase (-), clindamycin resistant, read-out: MIC",50 µg/mL
same,MIC,"B. fragilis; B. fragilis A22021, β-lactamase (+), read-out: MIC",> 100 µg/mL
same,MIC,"B. fragilis; B. fragilis A22053, A22021, A22693, β-lactamase (+), read-out: MIC, Geometric Mean",> 100 µg/mL
same,MIC,"B. fragilis; B. fragilis A22053, β-lactamase (+), read-out: MIC",50 µg/mL
same,MIC,"B. fragilis; B. fragilis A22533, β-lactamase (+), read-out: MIC",> 100 µg/mL
same,MIC,"B. fragilis; B. fragilis A22693, β-lactamase (+), read-out: MIC",> 100 µg/mL
same,MIC,"B. fragilis; B. fragilis A22695, A22533, β-lactamase (+), read-out: MIC, Geometric Mean",> 100 µg/mL
same,MIC,"B. fragilis; B. fragilis A22695, β-lactamase (+), read-out: MIC",> 100 µg/mL
same,ED50,S. pyogenes A20201,0.11 mg/kg
same,T1/2,"[3]; im, 20 mg/kg",0.48
same,T1/2,"[3]; po, 20 mg/kg",1.7
same,T1/2,"[3]; po, 100 mg/kg",1.3 h
same,difference in MIC between the two media,[4],less than three fold
